Laboratory results from patent publication US8946218B2, “CCR2 receptor antagonists, method for producing the same, and use thereof as medicaments” (Boehringer Ingelheim International GmbH, priority 2010, dated 2015).

Target: T1, CCR2 (Homo sapiens, UniProt P41597)
T1 construct: Membranes were prepared from THP-1 cells; endogenous in cells; host or cells: THP-1 (human acute monocytic leukaemia cells), membrane preparation
Experiment: Receptor membrane binding assay: [125I]MCP-1 binding to CCR2 on THP-1 cell membranes (SPA beads)
Details: THP-1 membranes, [125I]MCP-1, bound radioactivity after 8 h; read-out: hKi
Description: The above exemplary substances have been tested for binding to CCR2 using a binding assay as outlined herein below:
THP-1 cells (human acute monocytic leukaemia cells) were cultured under standardized conditions at 37° C. and 5% CO2 in a humidified incubator. THP-1 cells were cultivated in RPMI 1640 medium (Gibco 21875) containing 1% MEM-NEAA (Gibso 11140) 2 mM L-glutamine, 1.5 g/L sodium bicarbonate, 4.5 g/L glucose, 10 mM HEPES and 1.0 mM sodium pyruvate, 90%; 10% fetal calf serum (FCS Gibco 10500-064).
Membranes were prepared from THP-1 cells. THP-1 cells were centrifuged at 300×g at 4° C. for 10 min. The cell pellet was resuspended in Phosphate Buffer Saline (PBS, including 10 μM Pefabloc and a protease inhibitor mix ‘complete’, Boehringer Mannheim (1 tablet/50 ml)), to a concentration of […]. The membrane preparation was performed by disrupting the cells by nitrogen […] (at 50 bar, for 1 h) in a “Nitrogen Bombe” (Parr Instrument). Cell debris was removed by centrifugation (800×g at 4° C., 1 min). The supernatant was centrifuged at 80000×g, 4° C. for 30 min to sediment the cell membranes. Usually 50 mg of protein (Bradford assay) were yielded from 1×10E9 cells. The membranes were resuspended in 25 mM HEPES, 25 mM MgCl2, 1 mM CaCl2, 10% Glycerine for storage in aliquots at −80° C. in 25 mM HEPES, 25 mM MgCl2, 1 mM CaCl2, 10% Glycerine and stored at −80° C.
Receptor Membrane Binding Assay:
Perkin Elmer NEX 332 Jod 125 MCP-1, Stock: 2200 Ci/mmol solved in 2000 μl assay buffer, stored at −20° C. THP-1 membrane were adjusted with 25 mM HEPES, pH 7.2; 5 mM MgCl2; 0.5 mM CaCl2; 0.2% BSA assay buffer to a concentration of 2.5 μg/15 μl. Amersham Biosciences PVT-WGA Beads (RPNQ0001) were adjusted with assay buffer to a concentration of 0.24 mg/30 μl. For preparation of the membrane-bead-suspension membranes and beads were incubated for 30 min at RT under rotation (60 rpm) with a ratio of 1:2. Test compounds dissolved in 100% DMSO to a concentration of 10 mM and are further diluted with 100% DMSO to 1 mM. All additional compound dilutions were obtained with assay buffer, final 1% DMSO. Compounds, membrane-bead-suspension and [125I]MCP-1 (ca. 25000 cpm/10 μl) were incubated. Bound radioactivity was determined by scintillation counter after 8 h. Determination of affinity of test compounds (dissociation constant hKi) is calculated by iterative fitting of experimental data using the “easy sys” program, which is based on law of mass action (Schittkowski K. (1994), Numerische Mathematik, Vol. 68, 129-142).

T1 sequence (P41597 whole entry): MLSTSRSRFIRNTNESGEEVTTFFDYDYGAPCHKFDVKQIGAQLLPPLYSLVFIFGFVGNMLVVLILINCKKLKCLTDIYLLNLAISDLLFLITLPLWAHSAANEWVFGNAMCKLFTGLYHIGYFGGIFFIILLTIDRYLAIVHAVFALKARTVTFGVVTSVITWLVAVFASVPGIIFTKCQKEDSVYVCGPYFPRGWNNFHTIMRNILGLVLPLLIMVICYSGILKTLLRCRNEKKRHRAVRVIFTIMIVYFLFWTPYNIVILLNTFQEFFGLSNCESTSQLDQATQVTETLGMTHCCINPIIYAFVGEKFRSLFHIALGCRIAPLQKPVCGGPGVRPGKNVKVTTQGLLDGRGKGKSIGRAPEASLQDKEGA

Row | SMILES | Ki
1 | Cc1c(Nc2cccc(C(F)(F)F)c2)nc(C2CC2)nc1C(=O)N1CCC(N[C@H]2CCOC[C@H]2F)CC1 [Example 33u] | 1 nM
2 | CO[C@H]1COCC[C@H]1NC1CCN(C(=O)c2nc(C3CC3)nc(Nc3cccc(C(F)(F)F)c3)c2C)CC1 [Example 33v] | 0.4 nM
3 | COc1nc(Nc2cccc(C(F)(F)F)c2)c(C)c(C(=O)N2CCC(NC3CCOCC3)CC2)n1 [Example 33w] | 3 nM
4 | COC1COCCC1NC1CCN(C(=O)c2ncnc(Nc3cc4ccccc4c(C)n3)c2C)CC1 (centres unmarked) [Example 34] | 1010 nM
5 | CO[C@@H]1COCC[C@@H]1NC1CCN(C(=O)c2ncnc(Nc3ccc4ccccc4c3)c2C)CC1 [Example 35] | 26 nM
6 | COc1ccc2cc(Nc3ncnc(C(=O)N4CCC(N[C@H]5CCOC[C@H]5OC)CC4)c3C)ccc2c1 [Example 36] | 70 nM
7 | COc1ccc2ccc(Nc3ncnc(C(=O)N4CCC(N[C@@H]5CCOC[C@@H]5OC)CC4)c3C)cc2c1 [Example 40] | 84 nM
8 | COc1cc(Nc2ncnc(C(=O)N3CCC(N[C@@H]4CCOC[C@@H]4OC)CC3)c2C)cc2ccccc12 [Example 41] | 196 nM
9 | CO[C@@H]1COCC[C@@H]1NC1CCN(C(=O)c2ncnc(Nc3ccc4cc(Br)ccc4c3)c2C)CC1 [Example 43] | 17 nM

More lines, in order of falling Ki, values ahead:

Row | Ki | SMILES
10 | 91 nM | COc1cc(Nc2ncnc(C(=O)N3CCC(N[C@H]4CCOC[C@H]4OC)CC3)c2C)cc2ccccc12 [Example 38]
11 | 84 nM | CO[C@H]1COCC[C@H]1NC1CCN(C(=O)c2ncnc(Nc3ccc4ccccc4c3)c2C)CC1 [Example 39]
12 | 20 nM | CO[C@H]1COCC[C@H]1NC1CCN(C(=O)c2ncnc(Nc3ccc4cc(Br)ccc4c3)c2C)CC1 [Example 42]
13 | 15 nM | COc1ccc2ccc(Nc3ncnc(C(=O)N4CCC(N[C@H]5CCOC[C@H]5OC)CC4)c3C)cc2c1 [Example 37]
14 | 0.3 nM | CO[C@@H]1COCC[C@@H]1NC1CCN(C(=O)c2nc(C3CC3)nc(Nc3cccc(C(F)(F)F)c3)c2C)CC1 [Example 33t]
